Reference: patent US20220046923A1, “HERBICIDAL CINNOLINIUM COMPOUNDS” (SYNGENTA CROP PROTECTION AG, priority 2018, published 2022)

Assays:
Assay in all cases: Post-emergence efficacy, glasshouse spray test
Assay type in all cases: in vivo
[1] = tested on: Digitaria sanguinalis (DIGSA); details: Digitaria sanguinalis, post-emergence, 312 h, evaluated after 13 days, read-out: Control of weed species DIGSA after post-emergence application (100=total damage to plant; 0=no damage to plant); for pest or weed control at 1000 g/ha: application rate 1000 g/Ha
How it was run: (§1)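 Plants grown 14 days in glasshouse (24/16 °C day/night, 14 h light, 65% humidity), then sprayed post-emergence with formula (I) formulated in IF50 and diluted in 0.25% or 1% Empicol ESC70 + 1% ammonium sulphate. Damage scored visually 13 days after spraying (0 = none, 100 = total).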

Eleusine indica (ELEIN) = details: Eleusine indica, post-emergence, 312 h, evaluated after 13 days, read-out: Control of weed species ELEIN after post-emergence application (100=total damage to plant; 0=no damage to plant); for pest or weed control at 1000 g/ha: application rate 1000 g/Ha
How it was run: as §1

[2] = tested on: Chenopodium album (CHEAL); details: Chenopodium album, post-emergence, 312 h, evaluated after 13 days, read-out: Control of weed species CHEAL after post-emergence application (100=total damage to plant; 0=no damage to plant); for pest or weed control at 1000 g/ha: application rate 1000 g/Ha
How it was run: as §1

Lolium perenne (LOLPE) = details: Lolium perenne, post-emergence, 312 h, evaluated after 13 days, read-out: Control of weed species LOLPE after post-emergence application (100=total damage to plant; 0=no damage to plant); for pest or weed control at 1000 g/ha: application rate 1000 g/Ha
How it was run: as §1

[3] = tested on: Ipomoea hederacea (IPOHE); details: Ipomoea hederacea, post-emergence, 312 h, evaluated after 13 days, read-out: Control of weed species IPOHE after post-emergence application (100=total damage to plant; 0=no damage to plant); for pest or weed control at 1000 g/ha: application rate 1000 g/Ha
How it was run: as §1

[4] = tested on: Echinochloa crus-galli (ECHCG); details: Echinochloa crus-galli, post-emergence, 312 h, evaluated after 13 days, read-out: Control of weed species ECHCG after post-emergence application (100=total damage to plant; 0=no damage to plant); for pest or weed control at 1000 g/ha: application rate 1000 g/Ha
How it was run: as §1

[5] = tested on: Euphorbia heterophylla (EPHHL); details: Euphorbia heterophylla, post-emergence, 312 h, evaluated after 13 days, read-out: Control of weed species EPHHL after post-emergence application (100=total damage to plant; 0=no damage to plant); for pest or weed control at 1000 g/ha: application rate 1000 g/Ha
How it was run: as §1

[6] = tested on: Amaranthus palmeri (AMAPA); details: Amaranthus palmeri, post-emergence, 312 h, evaluated after 13 days, read-out: Control of weed species AMAPA after post-emergence application (100=total damage to plant; 0=no damage to plant); for pest or weed control at 1000 g/ha: application rate 1000 g/Ha
How it was run: as §1

Setaria faberi (SETFA) = details: Setaria faberi, post-emergence, 312 h, evaluated after 13 days, read-out: Control of weed species SETFA after post-emergence application (100=total damage to plant; 0=no damage to plant); for pest or weed control at 1000 g/ha: application rate 1000 g/Ha
How it was run: as §1

Row | Structure (SMILES) | pest or weed control at 1000 g/ha [1] [%] | pest or weed control at 1000 g/ha (Eleusine indica (ELEIN)) [%] | pest or weed control at 1000 g/ha [2] [%] | pest or weed control at 1000 g/ha (Lolium perenne (LOLPE)) [%] | pest or weed control at 1000 g/ha [3] [%] | pest or weed control at 1000 g/ha [4] [%] | pest or weed control at 1000 g/ha [5] [%] | pest or weed control at 1000 g/ha [6] [%] | pest or weed control at 1000 g/ha (Setaria faberi (SETFA)) [%] | pest or weed control at 500 g/ha ([1]; application rate 500 g/Ha) [%] | pest or weed control at 500 g/ha (Eleusine indica (ELEIN); application rate 500 g/Ha) [%] | pest or weed control at 500 g/ha ([2]; application rate 500 g/Ha) [%] | pest or weed control at 500 g/ha (Lolium perenne (LOLPE); application rate 500 g/Ha) [%] | pest or weed control at 500 g/ha ([3]; application rate 500 g/Ha) [%] | pest or weed control at 500 g/ha ([4]; application rate 500 g/Ha) [%] | pest or weed control at 500 g/ha ([5]; application rate 500 g/Ha) [%] | pest or weed control at 500 g/ha ([6]; application rate 500 g/Ha) [%] | pest or weed control at 500 g/ha (Setaria faberi (SETFA); application rate 500 g/Ha) [%]
1 | OCC[n+]1ccc2ccccc2n1 [Compound A119] | 50 | 40 | 90 | 20 | 50 | 20 | 80 | 90 | 50 |  |  |  |  |  |  |  |  | 
2 | COC(=O)C(C)[n+]1ccc2ccccc2n1 (stereo not drawn) [Compound A120] |  |  |  |  |  |  |  |  |  | 50 | 60 | 90 | 0 | 20 | 30 | 60 | 100 | 50
3 | OCCC[n+]1ccc2ccccc2n1 [Compound A121] | 0 | 0 | 60 | 10 | 20 | 10 | 30 | 30 | 30 |  |  |  |  |  |  |  |  | 
